# According to patent publication US9845330B2, “6-nitro-2,3-dihydroimidazo[2,1-b]oxazoles and a process for the preparation thereof” (priority 2013, dated 2017):
# Columns and labels:
# [1] = system: M. tuberculosis XDR (resistant to isoniazid, rifampicin, amikacin and moxifloxacin); experiment: microbe, parasite or virus in culture; assay type: cell-based; settings: Mycobacterium tuberculosis, 504 h, read-out: MIC M. tb XDR
# [2] = system: M. tuberculosis MDR (resistant to isoniazid and rifampicin); experiment: microbe, parasite or virus in culture; assay type: cell-based; settings: Mycobacterium tuberculosis, 504 h, read-out: MIC M. tb MDR
SMILES,MIC [1] [µg/mL],MIC [2] [µg/mL]
"CCCCCc1cc(-c2ccc(OC[C@@]3(C)Cn4cc([N+](=O)[O-])nc4O3)cc2)no1 [IC11, (R)-2-{4-[5-pentylisoxazol-3-yl]phenoxymethyl}-2,3-dihydro-2-methyl-6-nitroimidazo[2,1-b]oxazole]",32,32
"CCCCCCCc1cc(-c2ccc(OC[C@@]3(C)Cn4cc([N+](=O)[O-])nc4O3)cc2)no1 [IC12, (R)-2-{4-[5-heptylisoxazol-3-yl]phenoxymethyl}-2,3-dihydro-2-methyl-6-nitroimidazo[2,1-b]oxazole]",2,2
"C[C@]1(COc2ccc(-c3cc(COc4ccc(OC(F)(F)F)cc4)on3)cc2)Cn2cc([N+](=O)[O-])nc2O1 [IC13, (R)-2-{4-[5-(4-trifluoromethoxyphenoxymethyl)isoxazol-3-yl]phenoxymethyl}-2,3-dihydro-2-methyl-6-nitroimidazo[2,1-b]oxazole]",0.12,0.12
"C[C@]1(COc2ccc(-c3cc(COc4ccc(F)cc4)on3)cc2)Cn2cc([N+](=O)[O-])nc2O1 [IC14, (R)-2-{4-[5-(4-fluorophenoxymethyl)isoxazol-3-yl]phenoxymethyl}-2,3-dihydro-2-methyl-6-nitroimidazo[2,1-b]oxazole]",0.12,0.12
"C[C@]1(COc2ccc(-c3cc(COc4ccc(C(F)(F)F)cc4)on3)cc2)Cn2cc([N+](=O)[O-])nc2O1 [IC15, (R)-2-{4-[5-(4-trifluoromethylphenoxymethyl)isoxazol-3-yl]phenoxymethyl}-2,3-dihydro-2-methyl-6-nitroimidazo[2,1-b]oxazole]",0.5,0.5
"C[C@]1(COc2ccc(-c3cc(COc4ccccc4F)on3)cc2)Cn2cc([N+](=O)[O-])nc2O1 [IC16, (R)-2-{4-[5-(2-fluorophenoxymethyl)isoxazol-3-yl]phenoxymethyl}-2,3-dihydro-2-methyl-6-nitroimidazo[2,1-b]oxazole]",0.5,0.5
"Cc1ccc(OCc2cc(-c3ccc(OC[C@@]4(C)Cn5cc([N+](=O)[O-])nc5O4)cc3)no2)cc1 [IC17, (R)-2-{4-[5-(4-methylphenoxymethyl)isoxazol-3-yl]phenoxymethyl}-2,3-dihydro-2-methyl-6-nitroimidazo[2,1-b]oxazole]",0.5,0.5
"CC(C)c1ccc(OCc2cc(-c3ccc(OC[C@@]4(C)Cn5cc([N+](=O)[O-])nc5O4)cc3)no2)cc1 [IC18, (R)-2-{4-[5-(4-isopropylphenoxymethyl)isoxazol-3-yl]phenoxymethyl}-2,3-dihydro-2-methyl-6-nitroimidazo[2,1-b]oxazole]",0.25,0.25
"CCc1ccc(OCc2cc(-c3ccc(OC[C@@]4(C)Cn5cc([N+](=O)[O-])nc5O4)cc3)no2)cc1 [IC19, (R)-2-{4-[5-(4-ethylphenoxymethyl)isoxazol-3-yl]phenoxymethyl}-2,3-dihydro-2-methyl-6-nitroimidazo[2,1-b]oxazole]",2,2
"CCC(C)c1ccc(OCc2cc(-c3ccc(OC[C@@]4(C)Cn5cc([N+](=O)[O-])nc5O4)cc3)no2)cc1 (stereo partly drawn) [IC20, (R)-2-{4-[5-(4-sec-butylphenoxymethyl)isoxazol-3-yl]phenoxymethyl}-2,3-dihydro-2-methyl-6-nitroimidazo[2,1-b]oxazole]",2,2
"C[C@]1(COc2ccc(-c3cc(COc4ccccc4)on3)cc2)Cn2cc([N+](=O)[O-])nc2O1 [IC21, (R)-2-{4-[5-(phenoxymethyl)isoxazol-3-yl]phenoxymethyl}-2,3-dihydro-2-methyl-6-nitroimidazo[2,1-b]oxazole]",4,4
"C[C@]1(COc2ccc(-c3cc(COc4ccc(F)cc4F)on3)cc2)Cn2cc([N+](=O)[O-])nc2O1 [IC22, (R)-2-{4-[5-(2,4-difluorophenoxymethyl)isoxazol-3-yl]phenoxymethyl}-2,3-dihydro-2-methyl-6-nitroimidazo[2,1-b]oxazole]",0.12,0.12
